From patent publication EP0151577B1 (priority 1983, dated 1984)

Experiments:
[1] = In vivo metabolism of radioactive compounds, hamster plasma; settings: après 24 heures, figure 2
Source text: La mesure de la radioactivite des diverses fractions isolées du sang des hamsters traités permet de caractériser les metabolites, lesquels sont ainsi isolés et identifies par électrophorèse. Les metabolites acides HIAA et IAA sont séparés ensemble.
On a porté le temps en abscisses (exprimé en heures) et en ordonnées le pourcentage du compose caractérisé dans le plasma.

M. Leprae [2] = assay: Multiplication of M. leprae in mouse foot pads; format: in vivo, Mycobacterium leprae; settings: 20 mg/kg par voie orale, daily from inoculation
Experimental: Le tableau 7 contient les résultats d'essai concernant l'activité du DF-5HTP sur les M. leprae sur les pattes de souris. Le protocole experimental était le suivant:
MESTER, L., and BALAKRISHNAN, S., Desoxyfructo-serotonin: First Human Metabolite with Antileprosy Activity. Acta Lepr. N°83, 21, 1981.
La dose de DF-5HTP était de 0,5 mg par 5 g de nourriture et par souris. Cette dose était administrée tous les jours a partir de la date d'inoculation. Les essais ont porté sur un lot de 24 souris.
Protocole: Sur la patte de chaque souris on a inoculé 5 x 10^6 M.leprae montrant un index morphologique (I. M.) = 2 %. Les chiffres suivis par X indiquent la multiplication de M. leprae initialement inoculé. (Pour la méthode utilisée voir MESTER, L., and BALAKRISHNAN, S., Desoxyfructo-serotonin: First Human Metabolite with Antileprosy Activity, Acta Lepr. N° 83, 21,1981.

souris [3] = assay: General pharmacological profile: respiratory rate; format: in vivo; settings: souris
Source text: Activite motrice spontanée: MODIGH, K., Central and peripheral effects of 5-hydroxytryptophan on motor activity in mice. Psychopharmacologia (Berlin), 23, 48, 1972. Cadence respiratoire: […], S., and VALZELLI, L. Serotonin and cardiovascular system, Chapter 9, in "Serotonin", Elsevier Publ. Co. Amsterdam 1965.
COHEN, Y. and BLANCHARD, P. Influence de la chelation du calcium sur les effets tensionnels de la sérotonine chez le chien. J. Physiol., 52, 569,1960.
BRAUNWALD, E. Control of myocardial oxygen consumption: Physiologic and clinical considerations. Am. J. Cardiol., 27 (4), 416,1971.

DOPA-oxydase = assay: Inhibition in the DOPA-oxydase + DOPA system; format: biochemical, champignons; settings: concentrations inférieures a 10-^4M; figure 1
Source text: D'autres essais ont été entrepris pour mesurer l'inhibition exercée par la DF-5HTP dans le système DOPA-oxydase + DOPA, par comparaison avec la désoxyfructosérotonine (DFS). Pour ce qui concerne l'inhibition de la DOPA-oxydase, on pourra se reporter a la methode de N.H. Horowitz, M. Fling et et C. Horn "Tyrosinase", dans Methods in Enzymology Vol. XVII- A, p. 615, Editors: Tabor and Tabor, Ac. Press, 1970.
L'effet de la désoxyfructo-sérotonine (DFS) sur les Mycobacteries de la lèpre est attribue a son effet inhibiteur sur la DOPA-oxydase de M. leprae. Une DOPA-oxydase semblable, isolée de champignons, est commercialisée (SIGMA) et a servi comme modèle afin de comparer l'effet inhibiteur de la DFS et du désoxyfructo-5-hydroxytryptophane sur cette DOPA-oxydase.
La figure 1 est un graphique dans lequel on a porté en abscisses la concentration de I'agent de traitement utilise et en ordonnées les valeurs de la coloration du milieu mesurée a 540 mµ, celles-ci étant en effet representatives de la concentration en substance capable de colorer le milieu. En presence d'un inhibiteur, la formation de la coloration est empêchée. Ainsi, plus les valeurs portées en ordonnées sont faibles, meilleure est I'inhibition procurée par le compose essayé.

souris [4] = assay: Anti-stress activity: milk-induced leucocytosis; format: in vivo; settings: 174 mg/kg i.p.; 0,1 ml de lait s.c. before treatment; lait seulement 23866 ± 214
souris [5] = assay: Anti-stress activity: swimming endurance; format: in vivo; settings: 174 mg/kg i.p., souris observed up to 540 min; témoins 385 ± 31 min
Experimental: Au tableau 4, la lettre N designe le nombre d'animaux (souris). Un astérisque indique une activite importante. Deux astérisques indiquent une possibilité d'activité positive. Dans I'essai d'endurance a la nage, on a observe les souris jusqu'à 540 minutes, la durée moyenne de nage pour les souris témoins étant de 385 ± 31 minutes.
(N) - représente le nombre d'animaux * - activité importante ** - activite positive possible Pour I'endurance a la nage, les souris ont été observées jusqu'à 540 min, la durée moyenne de nage chez les souris témoins était de 385 + 31 min. *** - La leucocytose a été induite par 0,1 ml de lait (sous-cutanée) avant traitement avec le medicament.

M. Leprae [6] = assay: Incorporation of 3H-DOPA by M. leprae in vitro; format: cell-based, Mycobacterium leprae; settings: 6 h
Source text: Le tableau 6 rassemble des résultats d'essai concernant l'activité du DF-5HTP sur l'incorporation de la DOPA dans les Mycobacteries de la lèpre. Le protocole experimental était celui décrit dans JAYARAMAN, P., […], P.R., MESTER, M. and MESTER, L. Inhibition of the incorporation of ^3H-DOPA in Mycobacterium leprae by Desoxyfructo-serotonin. Biochem. Pharm., 29, 2526,1980.
On a inoculé 5 x 10^6 M. leprae par tube; le milieu était un tampon phosphate à pH 6,8. La quantité de 3H-DOPA était de 1 µ. Ci/tube.
Protocole: Chaque tube de 0,5 ml est inocule de 5 x 10^6 M. leprae et de 1 µ Ci de ^3H-DOPA. Après 6 heures, I'incorporation de la DOPA radioactive est enregistrée en DPM selon la technique utilisée dans JAYARAMAN, P., […], P.R., MESTER, M. and MESTER, L. Inhibition of the Incorporation of ^3H-DOPA in Mycobacterium leprae by Desoxyfructo-serotonin. Biochem. Pharm., 29,2526,1980.

## O=C(O)C(Cc1c[nH]c2ccc(O)cc12)NCC1(O)OCC(O)C(O)C1O (stereo not shown) [DF-5HTP, N-1-desoxyfructo-5-hydroxytryptophane]
[1]
  taux du compose non transformé dans le plasma: considerable
M. Leprae [2]; 4 mois après inoculation, témoins 33,8 X
  multiplication de M. Leprae sur les pattes des souris: 2,8 X
M. Leprae [2]; 6 mois après inoculation, témoins 38,4 X
  multiplication de M. Leprae sur les pattes des souris: Négatif
Souris [3]; 100 mg/kg (ip), Tableau 2
  Cadence respira-toire: sans effet
Souris [3]; 174 mg/kg (ip)
  Cadence respira-toire: sans effet
DOPA-oxydase
  activité inhibitrice sur la DOPA-oxydase (coloration du milieu mesurée a 540 mµ): comparable a celle de la DFS
Souris [4]
  Effet sur la leu-cocytose induite par le lait Moyenne T.L.C./Cmm: 10468 ± 130 (8) /Cmm
Souris [5]
  Endurance à la nage % d'augmentation: 40^** %
M. Leprae [6]; 1 µg/ml, Armadillo M.Leprae N°2275/5, témoins 5977
  incorporation de 3H-DOPA par M. Leprae: 2922 DPM
M. Leprae [6]; 1 µg/ml, Armadillo M.Leprae N°2275/5 Tués par la chaleur, témoins 915
  incorporation de 3H-DOPA par M. Leprae: 1008 DPM
M. Leprae [6]; 1 µg/ml, Armadillo M.Leprae N°2457/103, témoins 4215
  incorporation de 3H-DOPA par M. Leprae: 2555 DPM
M. Leprae [6]; 1 µg/ml, Armadillo M.Leprae N°2457/103 Tués par la chaleur, témoins 2855
  incorporation de 3H-DOPA par M. Leprae: 2660 DPM
M. Leprae [6]; 5 µg/ml, Armadillo M.Leprae N°2275/5, témoins 5977
  incorporation de 3H-DOPA par M. Leprae: 1599 DPM
M. Leprae [6]; 5 µg/ml, Armadillo M.Leprae N°2275/5 Tués par la chaleur, témoins 915
  incorporation de 3H-DOPA par M. Leprae: 732 DPM
M. Leprae [6]; 5 µg/ml, Armadillo M.Leprae N°2457/103, témoins 4215
  incorporation de 3H-DOPA par M. Leprae: 1930 DPM
M. Leprae [6]; 5 µg/ml, Armadillo M.Leprae N°2457/103 Tués par la chaleur, témoins 2855
  incorporation de 3H-DOPA par M. Leprae: 2675 DPM
